The values that follow come from ChEMBL document CHEMBL3112428, “Biological evaluation of diazene derivatives as anti-tubercular compounds” (Eur J Med Chem, 2014).

Data set [1] concerns Mycobacterium tuberculosis. Description: Antituberculosis activity against Mycobacterium tuberculosis H37Rv ATCC 27294 assessed as inhibition of bacterial replication after 6 days by luminometry analysis. It counts as functional, organism-based. The conditions noted are these: H37Rv ATCC 27294, 144 h.
For data set [2], the system named is Mycobacterium tuberculosis. Description: Antituberculosis activity against Mycobacterium tuberculosis H37Rv expressing lux gene infected in mouse J774A1 cells assessed as inhibition of bacterial replication at 3.13 ug/ml after 4 days by luminometry analysis. The class given is functional. The conditions noted are these: J774.A1, 96 h.
Data set [3] concerns Mycobacterium tuberculosis. Description: Antituberculosis activity against Mycobacterium tuberculosis H37Rv expressing lux gene infected in mouse J774A1 cells assessed as inhibition of bacterial replication at 1.56 ug/ml after 4 days by luminometry analysis. The class given is functional. As to conditions: J774.A1, 96 h.
The nature of data set [4]: Genotoxicity in mouse J774A1 cells assessed as ratio of genomic DNA present in tail and head at 0.1 to 10 ug/ml after 24 hrs by comet assay. The class given is toxicity, cell-based. As to conditions: j774.a1, 24 h.
Data set [5] concerns Mycobacterium ulcerans. Kind of data set: Antituberculosis activity against Mycobacterium ulcerans 1615 expressing lux gene assessed as inhibition of bacterial replication after 6 days by luminometry analysis. The class given is functional. The conditions noted are these: Mycobacterium ulcerans, 1615, 144 h.
Data set [6] has as its system Mycobacterium avium subsp. paratuberculosis. Description: Antituberculosis activity against Mycobacterium avium ssp. paratuberculosis ATCC 19698 expressing lux gene assessed as inhibition of bacterial replication after 6 days by luminometry analysis. It counts as functional, organism-based. As to conditions: ATCC 19698, 144 h.
Data set [7] is described as follows: Antituberculosis activity against Mycobacterium avium ssp. avium ATCC 15769 expressing lux gene assessed as inhibition of bacterial replication after 6 days by luminometry analysis. It counts as functional, Mycobacterium avium subsp. avium.
Data set [8] has as its system Mycobacterium tuberculosis. Description: Antituberculosis activity against Mycobacterium tuberculosis H37Rv expressing lux gene assessed as inhibition of bacterial replication after 6 days by luminometry analysis. The class given is functional, organism-based. The conditions noted are these: 144 h.
The subject of data set [9] is Mycobacterium tuberculosis. Description: Antituberculosis activity against Mycobacterium tuberculosis H37Rv ATCC 27294 assessed as inhibition of bacterial replication at < 10 ug/ml after 6 days by luminometry analysis relative to control. It counts as functional.
Data set [10] can be described thus: Selectivity index, ratio of IC50 for mouse J774A1 cells to IC50 for Mycobacterium tuberculosis H37Rv expressing pSMT1. It counts as toxicity, cell-based, J774.A1. The conditions noted are these: read-out: Ratio IC50.
A short description of data set [11]: Cytotoxicity against mouse J774A1 cells after 24 hrs by neutral red uptake assay. As to conditions: J774.A1, 24 h. The class given is cell-based.
Data set [12] relates to Mycobacterium tuberculosis. Kind of data set: Antituberculosis activity against Mycobacterium tuberculosis H37Rv expressing lux gene infected in mouse J774A1 cells assessed as inhibition of bacterial replication at 12.5 ug/ml after 4 days by luminometry analysis. It counts as functional. The conditions noted are these: J774.A1, 96 h.
Data set [13] concerns Mycobacterium tuberculosis. Kind of data set: Antituberculosis activity against Mycobacterium tuberculosis H37Rv expressing lux gene infected in mouse J774A1 cells assessed as inhibition of bacterial replication at 0.78 to 6.25 ug/ml after 4 days by luminometry analysis. The conditions noted are these: J774.A1. The class given is functional, organism-based.

≈ marks a conversion by molar mass, not a printed value. Calls of active or inactive are those of the source. No cut-off for these calls is given here.

Take `O=C(/N=N/c1c(F)c(F)c(F)c(F)c1F)Nc1ccccc1`: in data set [1], the IC50 (as a rule, the concentration that inhibits the measured activity by half) came out at 24.3 µg/mL (≈ 77.1 µM); the IC90 (commonly the concentration at which the effect reaches the 90% level) worked out at 45.3 µg/mL (≈ 144 µM); the IC99 (in general, the concentration needed for an effect of 99%) is above 50 µg/mL.

Consider `COc1ccc(/N=N/C(=O)Nc2ccccc2)cc1`, for which, in data set [1], the IC50 turned out to be 12.1 µg/mL (≈ 47.3 µM), the IC90 is 38.4 µg/mL (≈ 150 µM) and the IC99 is 42.2 µg/mL.

As for `O=C(/N=N/c1ccccn1)Nc1ccccc1`, in [1], the IC50 stood at 27.1 µg/mL (≈ 120 µM), the IC90 is 46.9 µg/mL (≈ 207 µM) and the IC99 is above 50 µg/mL.

`O=C(/N=N/c1ccc(Cl)cc1)Nc1ccccc1`: in data set [1], the IC50 was found to be 15.6 µg/mL (≈ 59.9 µM), the IC90 amounted to 41.4 µg/mL (≈ 159 µM) and the IC99 came to 49.3 µg/mL.

As for `O=C(/N=N/C(=O)Nc1ccc(F)cc1)NCc1ccncc1`, in [1], the IC50 is above 50 µg/mL, the IC90 is above 50 µg/mL and the IC99 is above 50 µg/mL.

As for `O=C(/N=N/c1ccc(F)cc1)Nc1ccccc1`, in data set [1], the IC50 is 45.2 µg/mL (≈ 186 µM), the IC90 is 49.2 µg/mL (≈ 202 µM) and the IC99 is above 50 µg/mL.

`O=C(/N=N/C(=O)Nc1ccc(F)cc1F)NCc1cccnc1`: in data set [1], the IC50 was determined as 38.6 µg/mL (≈ 121 µM), the 90% effect concentration (IC90) is above 50 µg/mL and the IC99 was above 50 µg/mL.

With `O=C(/N=N/c1nccc(C(F)(F)F)n1)Nc1ccccc1`, in [1], the concentration for half-maximal inhibition (IC50) is above 50 µg/mL, the IC90 is above 50 µg/mL and the concentration for an effect of 99% (IC99) is above 50 µg/mL.

Turning to `COC(=O)/N=N/C(=O)Nc1ccc(OC)cc1`, in [1], the IC50 was 14.3 µg/mL (≈ 60.4 µM), the IC90 amounted to 32.4 µg/mL (≈ 137 µM) and the IC99 is above 50 µg/mL.

Take `O=C(/N=N/C(=O)Nc1ccc(F)cc1F)NCc1ccncc1`: in data set [1], the IC50 was 33.3 µg/mL (≈ 104 µM), the IC90 is above 50 µg/mL and the IC99 is above 50 µg/mL.

As to `O=C(/N=N/c1ccc(C(F)(F)F)cc1)Nc1ccccc1`, the inhibition (usually the share of the control response that was lost under treatment) at 3.13 µg/mL in [2] worked out at 74.4%. The inhibition at 1.56 µg/mL in [3] is 31.7%. Besides, the Activity entry in data set [4] is on record as “Non-toxic”. The IC50 in [5] turned out to be 3.78 µg/mL (≈ 12.9 µM); in data set [6], 0.98 µg/mL (≈ 3.34 µM); in data set [7], 1.03 µg/mL (≈ 3.51 µM); in data set [8], 0.24 µg/mL (≈ 0.818 µM); in [11], 7.41 µg/mL (≈ 25.3 µM); in data set [1] it was 0.24 µg/mL (≈ 0.818 µM). For the same molecule, in data set [9], the “fold change (FC)” value stood at 10. Besides, the selectivity ratio in [10] came to 30.2. In addition, the IC90 in [1] amounted to 5.29 µg/mL (≈ 18 µM). Moreover, the IC99 in data set [1] stood at 6.24 µg/mL.

On to `CCOC(=O)/N=N/C(=O)Nc1ccc(C)cc1`, for which the Activity entry in [4] was “Non-toxic”. Further, the IC50 worked out at 7.25 µg/mL (≈ 30.8 µM) in data set [5]; 4.89 µg/mL (≈ 20.8 µM) in data set [6]; 3.14 µg/mL (≈ 13.3 µM) in data set [7]; 2.72 µg/mL (≈ 11.6 µM) in [8]; 20.8 µg/mL (≈ 88.2 µM) in [11]; 2.72 µg/mL (≈ 11.6 µM) in data set [1]. Also, in [9], the “fold change (FC)” value amounted to 10. In addition, the selectivity ratio in [10] was 7.63. Moreover, the IC90 in [1] is 4.07 µg/mL (≈ 17.3 µM). Moreover, the IC99 in data set [1] was 7.97 µg/mL. For the same molecule, the inhibition at 12.5 µg/mL in data set [12] turned out to be 40.3%.

Take `O=C(/N=N/C(=O)Nc1ccc(F)cc1)NCc1cccnc1`: in data set [1], the IC50 was above 50 µg/mL, the IC90 is above 50 µg/mL and the IC99 is above 50 µg/mL.

As to `NNC(=O)c1ccncc1` [ISONIAZID], in data set [1], the IC50 was found to be 0.04 µg/mL (≈ 0.292 µM), the IC90 came to 0.11 µg/mL (≈ 0.802 µM) and the IC99 came out at 0.13 µg/mL.

Turning to `O=C(/N=N/c1ccc([N+](=O)[O-])cc1)Nc1ccccc1`, the inhibition entry in data set [13] was “inactive”. Further, in [4], the Activity result is listed as “Non-toxic”. For the same molecule, the IC50 in [5] came to 5.67 µg/mL (≈ 21 µM); in [6], 3.56 µg/mL (≈ 13.2 µM); in data set [7], 2.98 µg/mL (≈ 11 µM); in [8], 2.75 µg/mL (≈ 10.2 µM); in data set [11], 14.4 µg/mL (≈ 53.2 µM); in [1], 2.75 µg/mL (≈ 10.2 µM). Further, the “fold change (FC)” value in [9] turned out to be 10. For the same molecule, in data set [10], the selectivity ratio came to 5.23. In addition, the IC90 in data set [1] was found to be 6.23 µg/mL (≈ 23.1 µM). The IC99 in [1] was 16.5 µg/mL.

Regarding `CCOC(=O)/N=N/C(=O)Nc1ccccc1`, in [1], the half-inhibitory concentration (IC50) was 17.2 µg/mL (≈ 77.8 µM), the IC90 came out at 33.8 µg/mL (≈ 153 µM) and the IC99 was above 50 µg/mL.
